The test system of assay [1] is E. coli NCTC 13353 (CTX-M15, OXA-1). Nature of the assay: Antibacterial activity, MIC by agar dilution (CLSI). The assay is classed as cell-based. The settings on record: E. Coli NCTC 13353 (CTX-M15, OXA-1). Here is the method:
(§1) The biological activity of representative compounds according to the invention against various bacterial strains was investigated. In a typical study, overnight grown bacterial cultures were diluted appropriately and inoculated on the agar media containing doubling dilutions of the test compounds. Observations for growth or no growth was performed after 16-20 hours of incubation at 35±2° C. in the ambient air. The overall procedure was performed as per Clinical and Laboratory Standards Institute (CLSI) recommendations, (Clinical and Laboratory Standards Institute (CLSI), Performance Standards for Antimicrobial Susceptibility Testing, 20th Informational Supplement, M07-A9, Volume 32, No. 2, 2012). Molten Mueller Hinton Agar (BD, USA) containing serial dilutions of each antibacterial agent were poured on to the plates and allowed to solidify. Appropriate suspensions from the freshly grown cultures were prepared in normal saline so that about 10^4 CFU/spot of the organism was delivered on to the drug containing agar plates using automated multipoint inoculator (Mast, UK). The plates were incubated in Biochemical oxygen demand (BOD) incubator at 37° C. for 18 hours and then examined for growth.
Table 2 details the antibacterial activity of representative compounds according to invention, against various Multi Drug Resistant (MDR) Gram-negative bacterial strains. The strains selected for study included E. coli NCTC 13353 producing CTX-M15 and OXA-1 beta-lactamase enzymes; K. pneumoniae H521 producing KPC, SHV, TEM beta-lactamase enzymes; and K. pneumoniae S48 producing NDM, SHV, TEM beta-lactamase enzymes. The activities are expressed as Minimum Inhibitory Concentrations (MICs) (mcg/ml).
For orientation: In agar dilution the substance is mixed into plates at graded concentrations.

The test system of assay [2] is K. pneumoniae H521 (KPC, SHV, TEM). The assay is described as above. The assay is classed as cell-based. The settings on record: Table 2, K. pneumoniae H521 (KPC, SHV, TEM). Here is the method:
as §1
(§2) The strains selected for study included E. coli NCTC 13353 producing CTX-M15 and OXA-1 beta-lactamase enzymes; K. pneumoniae H521 producing KPC, SHV, TEM beta-lactamase enzymes; and K. pneumoniae S48 producing NDM, SHV, TEM beta-lactamase enzymes. The activities are expressed as Minimum Inhibitory Concentrations (MICs) (mcg/ml).

For assay [3], the system named is K. pneomoniae S48 (NDM, SHV, TEM). The description is as above. To be noted: Table 2, K. pneomoniae S48 (NDM, SHV, TEM). It counts as cell-based, K. pneumoniae. Here is the method: as §1, §2
For assay [4], the system named is T1, Class C beta-lactamase, E. coli M50 (CMY/DHA).
T1 construct: no borders, tags or purification printed
The assay is classed as biochemical. The settings on record: read-out: Beta-lactamase enzyme inhibition IC50. Here is the method:
(§3) Determination of enzyme inhibition activity: Concentration of the inhibitor required to inhibit 50% of enzymatic activity was measured by adding a chromogenic substrate, Nitrocefin (100 uM, 5 min) to the preincubated mixture of crude enzyme and the agents (37° C., 10 min). Absorbance was measured at 485 nm by UV-spectrophotometer. The IC50 was calculated by plotting absorbance against concentration through Sigmoidal dose response curve using Graph Pad software.
(§4) The enzyme inhibition was expressed as IC50.

Assay [5] has as its target T2, Class D beta-lactamase, A. baumannii NCTC 13301 (OXA 23) (Acinetobacter baumannii, UniProt Q9L4P2).
T2 construct: preincubated mixture of crude enzyme and the agents; endogenous in cells; host or cells: A. baumannii NCTC 13301
The assay can be described thus: Beta-lactamase enzyme inhibition (nitrocefin, crude enzyme). The assay is classed as biochemical. To be noted: Class D A. baumannii NCTC 13301 (OXA 23); read-out: Beta-lactamase enzyme inhibition IC50. Here is the method: as §3, §4

For assay [6], the target named is T3, Class A beta-lactamase, K. pneumoniae ATCC 700603 (SHV 18) (Klebsiella pneumoniae, UniProt P0AD64, E235K/G234A/R39S).
T3 construct: preincubated mixture of crude enzyme and the agents; endogenous in cells; host or cells: K. pneumoniae ATCC 700603
Nature of the assay: biochemical. The procedure:
as §3, §4

Where [7] appears, read: Klebsiella pneumoniae, read-out: MIC.
Where [8] appears, read: Escherichia coli, NCTC13353, 18 h, Table 2, read-out: MIC.
[9] abbreviates: Klebsiella pneumoniae, 18 h, read-out: MIC.

By MIC is commonly meant the lowest concentration that inhibits growth of the organism. As usually defined, the IC50 is the concentration at which inhibition is half-maximal.

Converted amounts (≈) assume the structure as drawn. Counter-ions that a name gives are not always drawn. Like-named read-outs stand apart in the source and are kept apart here.

T2 sequence (Q9L4P2 18-273): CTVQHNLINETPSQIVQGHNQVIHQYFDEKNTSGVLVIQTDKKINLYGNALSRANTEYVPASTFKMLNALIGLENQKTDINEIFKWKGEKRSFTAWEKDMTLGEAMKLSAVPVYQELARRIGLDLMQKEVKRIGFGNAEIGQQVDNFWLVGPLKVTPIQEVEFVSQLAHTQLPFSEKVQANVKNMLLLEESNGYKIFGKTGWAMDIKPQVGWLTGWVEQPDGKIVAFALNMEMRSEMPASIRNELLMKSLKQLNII
T3 sequence (P0AD64 22-286 R39S/G234A/E235K): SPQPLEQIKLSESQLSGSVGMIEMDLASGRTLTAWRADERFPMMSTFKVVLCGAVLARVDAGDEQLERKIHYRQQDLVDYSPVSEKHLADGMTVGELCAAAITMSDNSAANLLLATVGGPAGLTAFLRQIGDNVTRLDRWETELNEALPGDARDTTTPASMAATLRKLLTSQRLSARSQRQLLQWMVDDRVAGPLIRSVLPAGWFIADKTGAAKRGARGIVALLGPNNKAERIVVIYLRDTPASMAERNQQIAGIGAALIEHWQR

Consider `Nc1ccc(CC(=O)NNC(=O)[C@@H]2CC[C@@H]3CN2C(=O)N3OS(=O)(=O)O)c(F)c1` [Example 17, (2S,5R)-sulfuric acid mono-[2-(N′-(4-amino-2-fluorophenyl-acetyl)-hydrazinocarbonyl)-7-oxo-1,6-diaza-bicyclo[3.2.1]oct-6-yl]ester], for which the MIC in assay [1] (Escherichia coli, NCTC13353, Table 2, read-out: MIC) was 1 µg/mL (≈ 2.32 µM); in assay [2] (setting [7]), 4 µg/mL (≈ 9.27 µM); in assay [3] (setting [7]), 1 µg/mL (≈ 2.32 µM). For the same compound, the IC50 in assay [4] was 14 nM; in assay [5] it was 194 nM.

`O=C(O)[C@H]1/C(=C/CO)O[C@@H]2CC(=O)N21` [Clavulanic acid, clavulanic acid, reference compound]: in assay [4], the half-maximal inhibitory concentration (IC50) is above 10000 nM.

Take `CC(C)(C)OC(=O)CC(=O)Oc1ccc(CC(=O)NNC(=O)[C@@H]2CC[C@@H]3CN2C(=O)N3OS(=O)(=O)O)cc1` [Example 26, sodium salt of (2S,5R)-malonic acid tert-butyl ester 4-{2-oxo-2-[N′-(7-oxo-6-sulphooxy-1,6-diaza-bicyclo[3.2.1]octane-2-carbonyl)-hydrazino]ethyl}-phenyl ester]: the results for the minimum inhibitory concentration (MIC) in assay [1] (setting [8]), in assay [2] (setting [9]) and in assay [3] (setting [9]) were 2 µg/mL, 4 µg/mL and 2 µg/mL, respectively. The IC50 in assay [6] turned out to be 25 nM; in assay [5], 370 nM.

In the case of `N#Cc1ccc(CC(=O)NNC(=O)[C@@H]2CC[C@@H]3CN2C(=O)N3OS(=O)(=O)O)cc1` [Example 10, sodium salt of (2S,5R)-sulfuric acid mono-[2-(N′-(4-cyanophenyl-acetyl)-hydrazinocarbonyl)-7-oxo-1,6-diaza-bicyclo[3.2.1]oct-6-yl]ester], the MIC in assay [1] (setting [8]) stood at 1 µg/mL; in assay [2] (setting [9]), 4 µg/mL; in assay [3] (setting [9]), 1 µg/mL. In addition, the values for the IC50 in assay [6] and in assay [5] were 162 nM and 805 nM, respectively.

For the compound “sodium salt of (2S,5R)-sulfuric acid mono-[2-(N′-(3,3-diphenyl-propionyl)-hydrazinocarbonyl)-7-oxo-1,6-diaza-bicyclo[3.2.1]oct-6-yl]ester [Example 7]”, the MIC in assay [1] (Table 2), in assay [2] and in assay [3] was above 32 µg/mL in each case. Also, the figures for the 50% inhibitory concentration (IC50) in assay [4] and in assay [5] were 14 nM and 89 nM, respectively.

Take “sodium salt of (2S,5R)-succinic acid tert-butyl ester 4-{2-oxo-2-[N′-(7-oxo-6-sulphooxy-1,6-diaza-bicyclo[3.2.1]octane-2-carbonyl)-hydrazino]ethyl}-phenyl ester [Example 27]”: the minimal inhibitory concentration (MIC) worked out at 2 µg/mL in assay [1] (Table 2) and 8 µg/mL in assay [3]. Also, the figures for the IC50 in assay [4] and in assay [5] were 14 nM and 498 nM, respectively.

For the compound `O=C(Cc1ccc(O)cc1F)NNC(=O)[C@@H]1CC[C@@H]2CN1C(=O)N2OS(=O)(=O)O` [Example 18, sodium salt of (2S,5R)-sulfuric acid mono-[2-(N′-(2-fluoro-4-hydroxyphenyl-acetyl)-hydrazinocarbonyl)-7-oxo-1,6-diaza-bicyclo[3.2.1]oct-6-yl]ester], the MIC in assay [1] (setting [8]) amounted to 0.5 µg/mL; in assay [2] (setting [9]), 2 µg/mL; in assay [3] (setting [9]), 0.5 µg/mL. Also, the IC50 is 154 nM in assay [6] and 146 nM in assay [5].

For the compound `CC(C)(C)C(=O)Oc1ccc(CC(=O)NNC(=O)[C@@H]2CC[C@@H]3CN2C(=O)N3OS(=O)(=O)O)cc1` [Example 22, sodium salt of 2,2-dimethyl-propionic acid 4-{2-oxo-2-[N′-((2S,5R)-7-oxo-6-sulphooxy-1,6-diaza-bicyclo[3.2.1]octane-2-carbonyl)-hydrazino]ethyl}-phenyl ester], the minimum inhibitory concentration (MIC) came out at 16 µg/mL in assay [1] (setting [8]), 32 µg/mL in assay [2] (setting [9]) and 32 µg/mL in assay [3] (setting [9]). The IC50 in assay [6] is 25 nM; in assay [5] it was 973 nM.
